Results published in ChEMBL document CHEMBL3085636, “Further optimization of plakortin pharmacophore: structurally simple 4-oxymethyl-1,2-dioxanes with promising antimalarial activity” (Eur J Med Chem, 2013).

Experiments:
Plasmodium falciparum [1] = assay: Antimalarial activity against chloroquine-sensitive Plasmodium falciparum D10 after 72 hrs by parasite lactate dehydrogenase assay; assay type: functional, organism-based; settings: D10, 72 h
Plasmodium falciparum [2] = assay: Antimalarial activity against chloroquine-resistant Plasmodium falciparum W2 after 72 hrs by parasite lactate dehydrogenase assay; assay type: functional, organism-based; settings: W2, 72 h

| Compound | IC50 (Plasmodium falciparum [1]) [µM] | IC50 (Plasmodium falciparum [2]) [µM] |
| --- | --- | --- |
| CCCC[C@@]1(OC)OOC(C)(C)C[C@@H]1CO | 17.2 | 7.3 |
| COC[C@H]1CC(C)(C)OO[C@@]1(C)OC | > 30 | > 30 |
| COC[C@H]1CC(C)(C)OO[C@]1(C)OC | > 30 | > 30 |
| CCCC[C@]1(C)C[C@H](CO)[C@@](CCCC)(OC)OO1 | > 30 | 11.2 |
| CCCC[C@@]1(C)C[C@H](CO)[C@](CCCC)(OC)OO1 | 6 | 2.3 |
| CCCC[C@@]1(OC)OOC(C)(C)C[C@@H]1COC | 8.6 | 2.8 |
| CCCC[C@]1(C)C[C@H](CO)[C@](CCCC)(OC)OO1 | 5.4 | 1.9 |
| CCCC[C@]1(OC)OOC(C)(C)C[C@@H]1COC | > 30 | > 30 |
| CCCCC1(CCCC)C[C@H](COC)[C@@](C)(OC)OO1 | – | 1.5 |
| CCCC[C@]1(C)C[C@H](COC)[C@](CCCC)(OC)OO1 | 0.8 | 0.5 |
| CCCC[C@@]1(C)C[C@H](COC)[C@](CCCC)(OC)OO1 | 0.9 | 0.7 |
| CCCCC1(CCCC)C[C@H](COC)[C@](C)(OC)OO1 | – | 1.7 |
| CCCCC1(CCCC)C[C@H](COC)[C@](CCCC)(OC)OO1 | – | 0.7 |
| CCCCC1(CCCC)C[C@H](CO)[C@@](CCCC)(OC)OO1 | 2.4 | 1 |
| CCCCC1(CCCC)C[C@H](COC)[C@@](CCCC)(OC)OO1 | – | 1 |
| CCCC[C@@]1(C)C[C@H](COC)[C@@](CCCC)(OC)OO1 | 2.3 | 1.2 |
| CCCC[C@]1(C)C[C@H](COC)[C@@](CCCC)(OC)OO1 | 4.3 | 2 |
| CCCCC1(CCCC)C[C@H](CO)[C@](CCCC)(OC)OO1 | 4 | 1.6 |
